According to patent US20060216356A1, “Detection of antibacterial activity in excretory secretory product of adult trichuris suis” (Board of Trustees of Michigan State University, priority 2000, published 2006):
Converted amounts (≈) assume the structure as drawn. Where a name gives a salt, the structure may show the parent alone.

Tests used:
Campylobacter jejuni [1] = assay: HPLC fractionation with qualitative broth microdilution bioassay of fractions; type: cell-based; conditions: C18 reverse phase HPLC, 5-80% ACN gradient in TFA
Experimental: (§1) A broth microdilution method in 96 well plates was used to obtain qualitative and quantitative measures of antibacterial activity. Qualitatively, 50 μl samples of ESP were added to 50 μl suspensions of Campylobacter jejuni (containing about 5×10^5 cfu, as determined by standard serial dilution and plating) in 96 well plates. Plates were evaluated for growth as indicated by the presence of either turbidity or pellet of bacterial cells in the bottoms of U-shaped wells after 48 hr incubation.
High performance liquid chromatography. A Model 173 high performance liquid chromatography (HPLC) system (Perkin Elmer Applied Biosystems, Inc., Foster City, Calif.) at the Michigan State University Macromolecular Structure Facility was used to fractionate Trichuris suis ESP for preliminary isolation of the antibacterial activity (Hearn, Meth. Enzymol. 104: 190-212 (1984)). Samples (150 μl) of ESP were mixed with an equal volume of 0.1% trifluoroacetic acid (TFA) and centrifuged at full speed (11,000×g) at room temperature for 15 minutes. […] Absorbance of the eluate was monitored at 214 nm, and fractions were collected manually as peaks were detected. […]

Campylobacter jejuni [2] = assay: Broth microdilution MIC/MBC and antibacterial titer on Campylobacter jejuni; type: cell-based
Experimental: Bacterial strains and media. The antibacterial activity in Trichuris suis ESP was originally observed using Campylobacter jejuni (ATCC 33292), and this was the strain on which most experiments were performed for this preliminary characterization. Several Campylobacter jejuni and Campylobacter coli isolates were used for MIC determinations (Table 1).
Additional quality control organisms routinely used for antimicrobial susceptibility assays were tested, including Enterococcus faecalis (ATCC 29212), Staphylococcus aureus (ATCC 25923), Escherichia coli (ATCC 25922), Pseudomonas aeruginosa (ATCC 27853), and Streptococcus pneumonia (ATCC 49619). […]
as §1
To quantify activity and determine the minimum inhibitory concentration (MIC) of ESP against test organisms, serial two-fold dilutions of 20×-concentrated ESP were prepared in 50 μl volumes of MHB (n=2). […]

Campylobacter jejuni [3] = assay: Effect of boiling on antibiotics, qualitative broth microdilution assay; type: cell-based; conditions: 1x concentration, boiled for 10 minutes
Experimental: as §1, with “incubation. […] The size of the drug was also taken into consideration. Additionally, an experiment to assess the heat stability of the antibiotics was performed.” for “incubation.”

[4] = compiled from a drug database at Upjohn; cited from earlier work
[5] = n-octanol/water partition coefficient (log PC) of antibiotics; type: physicochemical; conditions: in parentheses beside log PC
Experimental: Consideration of CAP contamination. […] Using the worst-case scenario, the predicted maximum amount of CAP absorbed and how much would be released into the medium if the whipworms dissolved (i.e., released 100%) was estimated. […] It was assumed that the aggregate whipworm volume of these eccentrically shaped nematodes occupied 4% of the incubation well volume (4 whipworms/ml at about 10 μl/whipworm).

| MIC (Campylobacter jejuni [2]) [µg/mL] | Compound | antibacterial activity of HPLC fractions (Campylobacter jejuni [1]) | Antibacterial activity after boiling (Campylobacter jejuni [3]) | log PC (n-octanol/water partition coefficient) [4] | Concentrating factor [5] [x] |
| --- | --- | --- | --- | --- | --- |
| ~2 (≈ 6.19 µM) | O=C(N[C@H](CO)[C@H](O)c1ccc([N+](=O)[O-])cc1)C(Cl)Cl [Chloramphenicol] | one fraction with antibacterial activity | + |  |  |
|  | CC1(C)S[C@@H]2[C@H](NC(=O)Cc3ccccc3)C(=O)N2[C@H]1C(=O)O [Penicillin G] |  | − | 185 | 71 |
|  | [H]/N=C(/N)N[C@H]1[C@H](O)[C@@H](O)[C@H](O[C@@H]2O[C@@H](C)[C@](O)(C=O)[C@H]2O[C@@H]2O[C@@H](CO)[C@H](O)[C@@H](O)[C@@H]2NC)[C@@H](N/C(N)=N\[H])[C@@H]1O [Streptomycin sulfate] |  | + | −9.53(—) |  |
